# Experiments:
# Format in all cases: in vivo
# [1] = system: Jimson Weed; assay: Selective post-emergent greenhouse test, Jimson Weed; details: post-emergence, 336 h, 2 weeks; for pest or weed control at 706.135 g/ha: 0.63 lbs/acre
# Text: (§1) So as to illustrate clearly the phytotoxic properties of the various active ingredients of the present invention, a group of controlled greenhouse experiments is described below.
# (§2) Various species of plants, both broadleaf weeds and valuable crops, were planted in beds of good agricultural soil in a greenhouse. After the plants had emerged and grown to a height of about 2-6 inches, a portion of the plants were sprayed with an aqueous mixture, made by mixing a selected active ingredient and emulsifier or dispersant with water to provide solution containing 250 or 125 ppm active ingredient, employing sufficient amounts of the treating composition to provide low post emergent application rates of about 0.63 or 0.32 pounds per acre. Other portions of the plants were left untreated to serve as controls. In each test the active ingredient was a 3-methylethyl-1H-2,1,3-benzothiadiazin-4(3H)-one-2,2-dioxide having a substituent in the one position according to the invention.
# (§3) After a period of 2 weeks the selective effect of the test ingredient on the plants was evaluated by a comparison with the control group of plants.
# [2] = system: Velvet Leaf; assay: Selective post-emergent greenhouse test, Velvet Leaf; details: post-emergence, 336 h, 2 weeks; for pest or weed control at 358.672 g/ha: 0.32 lbs/acre; for pest or weed control at 706.135 g/ha: 0.63 lbs/acre
# Text: as §1, §2, §3
# [3] = system: Soybean; assay: Selective post-emergent greenhouse test, Soybean (crop injury); details: Glycine max, post-emergence, 336 h, 2 weeks, read-out: % Control Soybean; for plant injury at 358.672 g/ha: 0.32 lbs/acre; for plant injury at 706.135 g/ha: 0.63 lbs/acre
# Text: as §1, §2, §3
# [4] = system: Cotton; assay: Selective post-emergent greenhouse test, Cotton (crop injury); details: Gossypium hirsutum, post-emergence, 336 h, post-emergent, 2 weeks, crop, read-out: % Control Cotton; for plant injury at 358.672 g/ha: 0.32 lbs/acre; for plant injury at 706.135 g/ha: 0.63 lbs/acre
# Text: as §1, §2, §3
# [5] = system: Nutsedge; assay: General post-emergent herbicidal activity at 10 lbs/acre, Nutsedge; details: Cyperus, post-emergence, 336 h
# Text: as §2, with “[…], […]” for “emulsifier or dispersant with water to provide solution containing 250 or 125 ppm active ingredient, employing sufficient amounts of the treating composition to provide low post emergent application rates of about 0.63 or 0.32 pounds per acre.”
# as §3
# [6] = system: Pig Weed; assay: General post-emergent herbicidal activity at 10 lbs/acre, Pig Weed; details: post-emergence, 336 h
# Text: as §2, with “[…], […]” for “emulsifier or dispersant with water to provide solution containing 250 or 125 ppm active ingredient, employing sufficient amounts of the treating composition to provide low post emergent application rates of about 0.63 or 0.32 pounds per acre.”
# as §3
# [7] = system: Annual Morning Glory; assay: General post-emergent herbicidal activity at 10 lbs/acre, Annual Morning Glory; details: Ipomoea, post-emergence, 336 h
# Text: as §2, with “[…], […]” for “emulsifier or dispersant with water to provide solution containing 250 or 125 ppm active ingredient, employing sufficient amounts of the treating composition to provide low post emergent application rates of about 0.63 or 0.32 pounds per acre.”
# as §3
# [8] = system: Velvet Leaf; assay: General post-emergent herbicidal activity at 10 lbs/acre, Velvet Leaf; details: post-emergence, 336 h
# Text: as §2, with “[…], […]” for “emulsifier or dispersant with water to provide solution containing 250 or 125 ppm active ingredient, employing sufficient amounts of the treating composition to provide low post emergent application rates of about 0.63 or 0.32 pounds per acre.”
# as §3
Compound,pest or weed control at 358.672 g/ha ([1]; 0.32 lbs/acre) [%],pest or weed control at 706.135 g/ha [1] [%],pest or weed control at 358.672 g/ha [2] [%],pest or weed control at 706.135 g/ha [2] [%],plant injury at 358.672 g/ha [3] [%],plant injury at 706.135 g/ha [3] [%],plant injury at 358.672 g/ha [4] [%],plant injury at 706.135 g/ha [4] [%],pest or weed control at 11208.5 g/ha [5] [%],pest or weed control at 11208.5 g/ha [6] [%],pest or weed control at 11208.5 g/ha [7] [%],pest or weed control at 11208.5 g/ha [8] [%]
"CCSC(=O)N1c2ccccc2C(=O)N(C(C)C)S1(=O)=O [COSCH2 CH3, 1H-2,1,3-Benzothiadiazine-1-carbothioic acid: 3,4-Dihydro-3-(1-methylethyl)-4-oxo, S-ethyl ester; 2,2-dioxide]",100,100,100,100,0,0,100,100,95,100,100,100
"CC=CC(=O)N1c2ccccc2C(=O)N(C(C)C)S1(=O)=O [COCHCHCH3, 1H-2,1,3-Benzothiadiazin-4(3H)-one: 3-(1-methylethyl)-1-(1-oxo-2-butenyl)-;2,2-dioxide]",,100,70,100,0,0,0,0,90,100,100,100

# From patent US4208514A, “4(3H)-Oxobenzo-2,1,3-thiadiazine-2,2-dioxides” (The Dow Chemical Company, priority 1976, dated 1980)
